The values below come from patent US5652222A, “Selective inhibition of leukemic cell proliferation by bcr-abl antisense oligonucleotides” (Temple University-of The Commonwealth System of Higher …, priority 1993, dated 1997).

“Also recorded” adds a separate entry of the source.

Data set [1] deals with normal hematopoietic progenitor cells (normal bone marrow MNC). The data set can be described thus: CFU-GM colony formation of normal hematopoietic progenitor cells. Type of data set: cell-based, human. Conditions: Table 3; 40 μg/ml at 0 h, 20 μg/ml 18 h later; 12 days; mean ± SD; control 263 ± 10. The text has this: Normal bone marrow mononuclear cells (MNC) were obtained by aspiration from consenting volunteers and enriched for hematopoietic progenitors as previously reported by numerous investigators (Zamecnick et al., Proc. Natl. Acad. Sci. U.S.A. 83, 4143-4147 (1986); Caracciolo et al., J. Clin. Invest. 85, 55-61 (1990)). In brief, marrow cells were subjected to Ficoll-Hypaque density gradient sedimentation and then depleted of adherent monocyte-macrophage and T-lymphocytes by adherence to plastic Petri dishes and rosetting with neuraminidase-treated sheep red blood cells, respectively. Philadelphia chromosome-positive blast cells were isolated by Ficoll-Hypaque density gradient sedimentation from a CML patient in blast crisis (L-6 type junction). […] The residual non-blast cells had the morphological appearance of small lymphocytes. 25,000 MNC and 25,000 CML blast cells were combined and incubated with bcr-abl breakpoint-Specific antisense oligomer (SEQ ID NO:3) (40 μg/ml at h 0; 20 μg/ml 18 hours later) or with a 4 nucleotide mismatch bcr-abl antisense oligomer (SEQ ID NO:2) (40 μg/ml at 0 h; 20 μg/ml 18 hours later) or left untreated. […] At the end of the incubation period colonies were counted. […]

The subject of data set [2] is BV173 cells. Description: Macroscopic examination / disease state of leukemic SCID mice. Type of data set: in vivo, SCID mice (human leukemic cells). On the procedure:
Injection of the mice with BV173 cells induces a disease closely resembling that in human leukemia patients.
To determine whether synthetic phosphorothioate oligodeoxynucleotides targeted against the bcr-abl junction of […] cells would modify the disease process in SCID mice. SCID mice were injected with 10^6 BV173 cells. The mice then received 1 mg of sense (ATCAATAAGG AAGCCCTTCAGCG, SEQ ID NO:34) or antisense ([…] ATTGAT, SEQ ID NO:29) b2/a2 bcr-abl phosphorothioate oligodeoxynucleotides (pyrogen leven <1 Eu/mg; 0.2 ml in Iscove modified Dulbecco medium in 5-10 seconds) intravenously for each of 9 consecutive days, beginning either 7 or 21 days after introducing 10^6 BV173 cells. Control mice received the diluent (iscove's modified Dulbecco medium) only. These time points approximate distinct disease stages in humans.

On to “SEQ ID NO:3: synthetic 18-mer GAAGGGCTTC TTCCTTAT specific for the 18-nucleotide target sequence of the L-6 bcr-abl junction (antisense GAAGGGCTTCTTCCTTAT; chemistry not given here)”, for which the “Colonies or Clusters, CFU-GM” value in data set [1] is recorded as 253 ± 35 colonies or clusters.
As to “SEQ ID NO:34: phosphorothioate sense sequence ATCAATAAGGAAGCCCTTCAGCG (23-mer b2a2 sense) (sense ATCAATAAGGAAGCCCTTCAGCG; all phosphorothioate, sugars by position and methylation of C not given here)”, the “evidence of active leukemic disease process” value in data set [2] (1 mg/mouse x9 i.v. from day 7 or 21) is “macroscopic, microscopic and molecular evidence of an active leukemic disease process”. Further, in data set [2] (from day +7, 26 days after last treatment (6 weeks)), the “macroscopic examination: leukemic nodules in liver and kidneys” value was “in addition to spleen enlargement, the presence of distinct leukemic nodules in liver and kidneys”. The “splenomegaly and leukemic metastases in the liver” value in data set [2] (from day +21, 12 days after last treatment (6 weeks)) was “splenomegaly and leukemic metastases in the liver were detected”. For the same substance, the “macroscopic examination: metastases / leukemic nodules in liver, kidneys, splenomegaly” value in data set [2] (from day +21, 26 days after treatment (8 weeks), FIG. 11) was “numerous metastases in the liver (FIG. 11A), a few in the kidneys, and splenomegaly; also recorded: Numerous distinct leukemic nodules are visible in the liver”.
